Assay results taken from patent US10800791B2, “Triazole ACC inhibitors and uses thereof” (Gilead Apollo, LLC, priority 2015, dated 2020).
Values after ≈ are worked out from the molar mass of the structure shown. Where two headings read alike, the source gives them in different places.

Assays:
fungal (fACC2) = fungal (fACC2) (UniProt Q00955); details: read-out: fACC2 (in vitro ACC2 Inhibition Assay, IC50), ADP-Glo, 5 nM ACC2, 20 μM ATP, 20 μM acetyl-CoA
[1] = system: Collectotrichum graminicola (Cg); experiment: Growth inhibition assay of fungal pathogens, Cg; format: cell-based; details: 48 h
Outline: (§1)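 Spores diluted in 17% V8 liquid media and incubated with compound at final 50, 10, 2 ppm or 2, 0.4, 0.08 ppm (2% DMSO). OD600 plus visual ratings at 24 and 48 hours, blank-subtracted; percent growth inhibition from 48 h readings relative to 2% DMSO control.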

C. krusei = experiment: Antifungal Activity Assay (broth microtiter MIC), C. krusei; format: cell-based, Candida krusei; details: Pichia kudriavzevii, ATCC6258, 48 h
Outline: (§2)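 Endpoint: lowest concentration visibly inhibiting growth relative to control after 48 h. Inoculum of 2.5×10^3 CFU/mL final in RPMI 1640+MOPS, prepared from overnight 35° C agar cultures; test compounds diluted in water to 128 μg/mL before plating.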

Septoria tritici (St) = experiment: Growth inhibition assay of fungal pathogens, St; format: cell-based; details: Zymoseptoria tritici, 48 h
Outline: as §1

C. parapsilosis = experiment: Antifungal Activity Assay (broth microtiter MIC), C. parapsilosis; format: cell-based, Candida parapsilosis; details: Lodderomyces parapsilosis, ATCC22019, 48 h
Outline: as §2

[2] = system: Fusarium virguliforme (Fv); experiment: Growth inhibition assay of fungal pathogens, Fv; format: cell-based; details: 48 h
Outline: as §1

Rhizoctonia solani (Rs) = experiment: Growth inhibition assay of fungal pathogens, Rs; format: cell-based; details: 48 h
Botrtyis cinerea (Bc) = experiment: Growth inhibition assay of fungal pathogens, Bc; format: cell-based; details: 48 h
Outline: as §1

[3] = system: Fusarium moniliforme (Fm); experiment: Growth inhibition assay of fungal pathogens, Fm; format: cell-based; details: for IC90: Fusarium verticillioides, 48 h, read-out: Concentration at 90% Inhibition Fm
Outline: as §1

C. albicans = experiment: Antifungal Activity Assay (broth microtiter MIC), C. albicans; format: cell-based, Candida albicans; details: Candida albicans, ATCC90028, 48 h
Outline: as §2

Diplodia maydis (Dm) = experiment: Growth inhibition assay of fungal pathogens, Dm; format: cell-based; details: Stenocarpella maydis, 48 h
Outline: as §1

[4] = read-out: Concentration at 90% Inhibition Cg, Collectotrichum graminicola, growth inhibition at 48 hours vs 2% DMSO control
[5] = read-out: Concentration at 90% Inhibition Cg, Collectotrichum graminicola, growth inhibition vs 2% DMSO control at 48 hours
[6] = read-out: MIC, C. krusei ATCC 6258, Table 3a, 3 replicates, MIC recorded at 48 h
[7] = read-out: MIC, C. krusei ATCC 6258, Table 3b (additional results), 3 replicates, MIC recorded at 48 h
[8] = read-out: Concentration at 90% Inhibition St, Septoria tritici, growth inhibition at 48 hours vs 2% DMSO control
[9] = read-out: Concentration at 90% Inhibition St, Septoria tritici, growth inhibition vs 2% DMSO control at 48 hours
[10] = read-out: MIC, C. parapsilosis ATCC 22019, Table 3a, 3 replicates, MIC recorded at 48 h
[11] = read-out: MIC, C. parapsilosis ATCC 22019, Table 3b (additional results), 3 replicates, MIC recorded at 48 h
[12] = read-out: Concentration at 90% Inhibition Fv, Fusarium virguliforme, growth inhibition at 48 hours vs 2% DMSO control
[13] = read-out: Concentration at 90% Inhibition Fv, Fusarium virguliforme, growth inhibition vs 2% DMSO control at 48 hours
[14] = read-out: Concentration at 90% Inhibition Rs, Rhizoctonia solani, mycelial plugs, growth inhibition at 48 hours vs 2% DMSO control
[15] = read-out: Concentration at 90% Inhibition Rs, Rhizoctonia solani, mycelial plugs, growth inhibition vs 2% DMSO control at 48 hours
[16] = read-out: Concentration at 90% Inhibition Bc, Botrtyis cinerea, growth inhibition at 48 hours vs 2% DMSO control
[17] = read-out: Concentration at 90% Inhibition Bc, Botrtyis cinerea, growth inhibition vs 2% DMSO control at 48 hours
[18] = Fusarium moniliforme, growth inhibition at 48 hours vs 2% DMSO control
[19] = read-out: MIC, C. albicans ATCC 90028, Table 3a, 3 replicates, MIC recorded at 48 h
[20] = read-out: MIC, C. albicans ATCC 90028, Table 3b (additional results), 3 replicates, MIC recorded at 48 h
[21] = read-out: Concentration at 90% Inhibition Dm, Diplodia maydis, growth inhibition at 48 hours vs 2% DMSO control
[22] = read-out: Concentration at 90% Inhibition Dm, Diplodia maydis, growth inhibition vs 2% DMSO control at 48 hours

Sequence of fungal (fACC2) (Q00955 whole entry): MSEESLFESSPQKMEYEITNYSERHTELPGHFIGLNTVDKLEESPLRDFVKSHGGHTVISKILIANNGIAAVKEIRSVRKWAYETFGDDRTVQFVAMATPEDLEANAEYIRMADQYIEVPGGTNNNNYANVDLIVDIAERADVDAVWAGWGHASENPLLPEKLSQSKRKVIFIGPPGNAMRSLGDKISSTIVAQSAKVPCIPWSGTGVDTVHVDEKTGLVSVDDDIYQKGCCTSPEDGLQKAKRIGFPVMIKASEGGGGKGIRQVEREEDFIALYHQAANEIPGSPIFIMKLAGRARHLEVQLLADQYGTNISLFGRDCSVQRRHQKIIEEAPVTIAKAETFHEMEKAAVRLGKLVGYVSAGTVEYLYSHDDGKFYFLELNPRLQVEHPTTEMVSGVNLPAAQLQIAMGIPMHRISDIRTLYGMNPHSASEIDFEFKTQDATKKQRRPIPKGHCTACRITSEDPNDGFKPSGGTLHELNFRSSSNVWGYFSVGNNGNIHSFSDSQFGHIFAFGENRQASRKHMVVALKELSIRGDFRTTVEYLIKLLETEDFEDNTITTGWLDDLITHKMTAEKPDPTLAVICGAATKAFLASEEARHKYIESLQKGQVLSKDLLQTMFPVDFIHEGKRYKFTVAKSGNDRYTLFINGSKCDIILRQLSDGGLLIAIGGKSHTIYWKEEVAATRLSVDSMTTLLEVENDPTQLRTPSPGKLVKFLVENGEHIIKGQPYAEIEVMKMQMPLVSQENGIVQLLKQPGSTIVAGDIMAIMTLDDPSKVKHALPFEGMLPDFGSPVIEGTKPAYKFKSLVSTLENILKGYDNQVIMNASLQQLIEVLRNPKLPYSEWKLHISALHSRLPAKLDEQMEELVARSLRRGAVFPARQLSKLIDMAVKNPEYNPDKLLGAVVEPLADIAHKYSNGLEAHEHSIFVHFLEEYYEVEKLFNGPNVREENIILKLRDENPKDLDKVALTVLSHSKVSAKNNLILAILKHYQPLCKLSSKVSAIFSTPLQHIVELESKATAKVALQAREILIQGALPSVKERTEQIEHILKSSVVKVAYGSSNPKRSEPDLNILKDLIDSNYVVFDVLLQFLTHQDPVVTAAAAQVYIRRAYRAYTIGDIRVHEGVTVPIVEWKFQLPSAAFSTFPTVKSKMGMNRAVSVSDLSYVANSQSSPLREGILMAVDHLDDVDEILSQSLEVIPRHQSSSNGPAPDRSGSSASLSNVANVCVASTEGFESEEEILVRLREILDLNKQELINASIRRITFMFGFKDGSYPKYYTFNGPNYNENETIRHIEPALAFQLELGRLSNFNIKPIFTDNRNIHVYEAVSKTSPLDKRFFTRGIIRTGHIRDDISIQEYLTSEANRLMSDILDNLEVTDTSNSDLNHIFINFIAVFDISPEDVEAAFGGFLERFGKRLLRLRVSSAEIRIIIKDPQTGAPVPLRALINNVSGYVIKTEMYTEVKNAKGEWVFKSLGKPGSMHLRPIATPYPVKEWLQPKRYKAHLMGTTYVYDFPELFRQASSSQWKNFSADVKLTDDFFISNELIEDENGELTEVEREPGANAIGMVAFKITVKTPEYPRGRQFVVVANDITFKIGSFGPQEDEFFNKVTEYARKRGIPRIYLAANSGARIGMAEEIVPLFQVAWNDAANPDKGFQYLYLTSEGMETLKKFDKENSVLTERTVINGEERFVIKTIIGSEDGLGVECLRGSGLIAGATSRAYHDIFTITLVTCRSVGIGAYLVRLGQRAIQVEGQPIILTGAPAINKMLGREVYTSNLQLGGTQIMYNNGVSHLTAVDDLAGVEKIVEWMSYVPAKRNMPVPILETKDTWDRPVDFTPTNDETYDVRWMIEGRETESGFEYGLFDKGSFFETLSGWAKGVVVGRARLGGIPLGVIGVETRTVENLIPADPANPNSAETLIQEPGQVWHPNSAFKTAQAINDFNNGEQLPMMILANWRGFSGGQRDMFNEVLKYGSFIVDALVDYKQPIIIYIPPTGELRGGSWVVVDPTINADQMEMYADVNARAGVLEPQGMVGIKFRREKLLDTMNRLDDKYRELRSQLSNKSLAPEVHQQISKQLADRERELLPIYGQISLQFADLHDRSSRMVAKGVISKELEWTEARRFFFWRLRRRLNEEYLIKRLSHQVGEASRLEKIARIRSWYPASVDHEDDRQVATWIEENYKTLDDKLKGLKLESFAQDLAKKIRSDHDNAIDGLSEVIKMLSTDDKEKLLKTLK

SMILES | IC50 (fungal (fACC2); Table 2a) [nM] | IC50 (fungal (fACC2); Table 2b, additional results) [nM] | IC90 [1, 4] [µg/mL] | IC90 [1, 5] [µg/mL] | MIC (C. krusei; [6]) [µg/mL] | MIC (C. krusei; [7]) [µg/mL] | IC90 (Septoria tritici (St); [8]) [µg/mL] | IC90 (Septoria tritici (St); [9]) [µg/mL] | MIC (C. parapsilosis; [10]) [µg/mL] | MIC (C. parapsilosis; [11]) [µg/mL] | IC90 [2, 12] [µg/mL] | IC90 [2, 13] [µg/mL] | IC90 (Rhizoctonia solani (Rs); [14]) [µg/mL] | IC90 (Rhizoctonia solani (Rs); [15]) [µg/mL] | IC90 (Botrtyis cinerea (Bc); [16]) [µg/mL] | IC90 (Botrtyis cinerea (Bc); [17]) [µg/mL] | Concentration at 90% Inhibition Fm [3, 18] | IC90 [3] [µg/mL] | MIC (C. albicans; [19]) [µg/mL] | MIC (C. albicans; [20]) [µg/mL] | also measured
CNC(=O)C(C)(C)n1c(=O)c2c(C)c(-n3nccn3)sc2n(C[C@H](OC(C)C)c2cc(F)ccc2OC)c1=O [Compound I-50, (R)-2-(1-(2-(5-fluoro-2-methoxyphenyl)-2-isopropoxy-ethyl)-5-methyl-2,4-dioxo-6-(2H-1,2,3-triazol-2-yl)-1,4-dihydrothieno[2,3-d]pyrimidin-3(2H)-yl)-N,2-dimethylpropanamide] | 1 to 5 | 1 to 5 | 2 (≈ 3.58 µM) | 10 (≈ 17.9 µM) | 1.1 to 2 (≈ 1.97 to 3.58 µM) | 0.25 to 1 (≈ 0.448 to 1.79 µM) | > 50 | > 50 | 2.1 to 4 (≈ 3.76 to 7.16 µM) | 2.01 to 4 (≈ 3.6 to 7.16 µM) | 0.4 (≈ 0.716 µM) | 0.4 (≈ 0.716 µM) | 2 (≈ 3.58 µM) | 10 (≈ 17.9 µM) | 2 (≈ 3.58 µM) | 2 (≈ 3.58 µM) | A (compound concentration of 0.4 ppm at 90% inhibition of fungal pathogens) | 0.4 (≈ 0.716 µM) | 1.1 to 2 (≈ 1.97 to 3.58 µM) | 1.01 to 2 (≈ 1.81 to 3.58 µM) | IC90 (Diplodia maydis (Dm); [21]): 10 µg/mL (≈ 17.9 µM); IC90 (Diplodia maydis (Dm); [22]): > 50 µg/mL
COc1ccc(F)cc1[C@H](Cn1c(=O)n(C(C)(C)C(=O)N2CC=CC2)c(=O)c2c(C)c(-n3nccn3)sc21)OC(C)C [Compound I-51, (R)-3-(1-(2,5-dihydro-1H-pyrrol-1-yl)-2-methyl-1-oxopropan-2-yl)-1-(2-(5-fluoro-2-methoxyphenyl)-2-isopropoxyethyl)-5-methyl-6-(2H-1,2,3-triazol-2-yl)thieno[2,3-d]pyrimidine-2,4(1H,3H)-dione] | 1 to 5 | 1 to 5 | – | – | – | – | – | – | – | – | – | – | – | – | – | – | – | – | – | – | IC90 ([1]; Collectotrichum graminicola, growth inhibition at 48 hours vs 2% DMSO control, read-out: Concentration at 90% Inhibition Cg): 0.08 µg/mL (≈ 0.134 µM); IC90 ([1]; Collectotrichum graminicola, growth inhibition vs 2% DMSO control at 48 hours, read-out: Concentration at 90% Inhibition Cg): 0.08 µg/mL (≈ 0.134 µM); MIC (C. krusei; Table 3a, ATCC 6258, 3 replicates, MIC recorded at 48 h, read-out: MIC, C. krusei ATCC 6258): 0.25 to 1 µg/mL (≈ 0.419 to 1.68 µM); MIC (C. krusei; Table 3b (additional results), ATCC 6258, 3 replicates, MIC recorded at 48 h, read-out: MIC, C. krusei ATCC 6258): 0.25 to 1 µg/mL (≈ 0.419 to 1.68 µM); IC90 (Septoria tritici (St); Septoria tritici, growth inhibition at 48 hours vs 2% DMSO control, read-out: Concentration at 90% Inhibition St): 2 µg/mL (≈ 3.35 µM); IC90 (Septoria tritici (St); Septoria tritici, growth inhibition vs 2% DMSO control at 48 hours, read-out: Concentration at 90% Inhibition St): 10 µg/mL (≈ 16.8 µM); MIC (C. parapsilosis; Table 3a, ATCC 22019, 3 replicates, MIC recorded at 48 h, read-out: MIC, C. parapsilosis ATCC 22019): 1.1 to 2 µg/mL (≈ 1.84 to 3.35 µM); MIC (C. parapsilosis; Table 3b (additional results), ATCC 22019, 3 replicates, MIC recorded at 48 h, read-out: MIC, C. parapsilosis ATCC 22019): > 4.01 µg/mL; IC90 ([2]; growth inhibition at 48 hours vs 2% DMSO control, read-out: Concentration at 90% Inhibition Fv): 0.4 µg/mL (≈ 0.67 µM); IC90 ([2]; growth inhibition vs 2% DMSO control at 48 hours, read-out: Concentration at 90% Inhibition Fv): 0.4 µg/mL (≈ 0.67 µM); IC90 (Rhizoctonia solani (Rs); mycelial plugs, growth inhibition at 48 hours vs 2% DMSO control, read-out: Concentration at 90% Inhibition Rs): 0.4 µg/mL (≈ 0.67 µM); IC90 (Rhizoctonia solani (Rs); mycelial plugs, growth inhibition vs 2% DMSO control at 48 hours, read-out: Concentration at 90% Inhibition Rs): 0.4 µg/mL (≈ 0.67 µM); IC90 (Botrtyis cinerea (Bc); Botrtyis cinerea, growth inhibition at 48 hours vs 2% DMSO control, read-out: Concentration at 90% Inhibition Bc): 0.4 µg/mL (≈ 0.67 µM); IC90 (Botrtyis cinerea (Bc); Botrtyis cinerea, growth inhibition vs 2% DMSO control at 48 hours, read-out: Concentration at 90% Inhibition Bc): 0.4 µg/mL (≈ 0.67 µM); IC90 [3, 18]: 0.08 µg/mL (≈ 0.134 µM); IC90 ([3]; Fusarium moniliforme, growth inhibition vs 2% DMSO control at 48 hours): 0.08 µg/mL (≈ 0.134 µM); MIC (C. albicans; Table 3a, ATCC 90028, 3 replicates, MIC recorded at 48 h, read-out: MIC, C. albicans ATCC 90028): 0.25 to 1 µg/mL (≈ 0.419 to 1.68 µM); MIC (C. albicans; Table 3b (additional results), ATCC 90028, 3 replicates, MIC recorded at 48 h, read-out: MIC, C. albicans ATCC 90028): 1.01 to 2 µg/mL (≈ 1.69 to 3.35 µM); IC90 (Diplodia maydis (Dm); Diplodia maydis, growth inhibition at 48 hours vs 2% DMSO control, read-out: Concentration at 90% Inhibition Dm): 0.08 µg/mL (≈ 0.134 µM); IC90 (Diplodia maydis (Dm); Diplodia maydis, growth inhibition vs 2% DMSO control at 48 hours, read-out: Concentration at 90% Inhibition Dm): 0.08 µg/mL (≈ 0.134 µM)
COc1ccc(F)cc1[C@H](Cn1c(=O)n(C(C)(C)C(=O)NCC#N)c(=O)c2c(C)c(-n3nccn3)sc21)OC(C)C [Compound I-52, (R)—N-(cyanomethyl)-2-(1-(2-(5-fluoro-2-methoxyphenyl)-2-isopropoxyethyl)-5-methyl-2,4-dioxo-6-(2H-1,2,3-triazol-2-yl)-1,4-dihydro-thieno[2,3-d]pyrimidin-3(2H)-yl)-2-methylpropanamide] | 1 to 5 | 1 to 5 | 10 (≈ 17.1 µM) | > 50 | 2.1 to 4 (≈ 3.6 to 6.85 µM) | 0.25 to 1 (≈ 0.428 to 1.71 µM) | > 50 | > 50 | 2.1 to 4 (≈ 3.6 to 6.85 µM) | 2.01 to 4 (≈ 3.44 to 6.85 µM) | 2 (≈ 3.43 µM) | 2 (≈ 3.43 µM) | > 50 | > 50 | 2 (≈ 3.43 µM) | 2 (≈ 3.43 µM) | B (compound concentration of 2.0 ppm at 90% inhibition of fungal pathogens) | 2 (≈ 3.43 µM) | 2.1 to 4 (≈ 3.6 to 6.85 µM) | 1.01 to 2 (≈ 1.73 to 3.43 µM) | IC90 (Diplodia maydis (Dm); [21]): 10 µg/mL (≈ 17.1 µM); IC90 (Diplodia maydis (Dm); [22]): > 50 µg/mL
